Measurements taken from patent US4902716A (priority 1984, dated 1990).
Where two headings read alike, the source gives them in different places.

Tests used:
VSV = type: cell-based, vesicular stomatitis; conditions: Day 5, inhibition of plaque formation
cells = test: Cytotoxicity (zone diameter in the antiviral assay); type: cell-based; conditions: Day 5
Method: The following assay method was utilized to illustrate the antiviral effectiveness of the compounds of formulae III and IV: […]
(1) Remove 75 cm^2 culture flasks from incubator (these were plated the previous week).
(3) Wash with 10 ml. PBSA or Puck's Saline.
(5) Wash a second time with 10 mL PBSA or Puck's Saline.
(7) Add 2 ml. trypsin/EDTA. Incubate until cells detach (10-20 min).
(8) Once detached, shake vigorously and immediately add 8 ml. medium and shake again.
(9) Count cells. (To 0.5 ml. cell suspension add 0.1 ml. trypan blue. Wait 5-10 minutes. Count 4 corner squares and middle square of 5×5 array in hemocytometer. Blue cells are dead. Total count per 10 ml. in culture flask=number of live cells×6×10^5).
(10) Maintain cell line by adding 3×10^6 cells to another 75 cm^2 culture flask. Bring to 30 ml. with fresh medium.
(11) For assay, add 1×10^6 cells to each well (6 wells per culture dish). Bring each well to 2 ml. with fresh medium.
(12) Incubate overnight at 37° C.
(2) Add 0.5 of medium containing 200 pfu HSV-I.
(3) Incubate 102 hr with a small amount of shaking.
(4) Add 2 ml. MC-4000 to each well.
(5) Place disks on surface and wash through (1 mg/disc, 0.5 mg/disc, 0.25 mg/disc, etc. for crude extracts).
(6) Incubate 48 hr. (making sure dishes remain level).
(1) Add 2 ml. neutral red medium.
(1) Read wells, e.g. 26 (++) where 26 indicates zone of cytotoxicity as the diameter in mm (12.5 mm to 36 mm) and (++) indicates the inhibition of plaque formation: complete inhibition (+++); a few plaques around the outside of well (++); definite inhibition (+); questionable inhibition (+/-); no inhibition (-); and no conclusion due to complete cytotoxicity.
The following antiviral inhibiting activity results were obtained utilizing the compounds of Formula III and IV at Day 5: […]

Question: How did the VSV activity (VSV; 100 micrograms) turn out when C=C1C(=O)C=CC(C)(C)[C@@]12C[C@@H](Br)[C@](C)(Cl)C[C@@H]2O [IV] was run?
Answer: +

Question: And the VSV activity (VSV; 200 micrograms)?
Answer: ++

Question: And the VSV activity (VSV; 400 micrograms)?
Answer: ++

Question: What about the Cytotoxicity (cells; 100 micrograms) of the same compound?
Answer: 0 mm

Question: And the Cytotoxicity (cells; 200 micrograms)?
Answer: 0 mm

Question: And the Cytotoxicity (cells; 400 micrograms)?
Answer: 12 mm
